Reference: PMC5218480 (PLoS ONE, 2017)

System: MV-4-11 cells
Experiment: Gene expression microarray analysis (Affymetrix PrimeView) and GSEA
Format: cell-based, human
Parameters: RFU PODN (11730768_x_at) / Fold change /veh PODN (11730768_x_at) / RFU LINC00158 (11744669_a_at) / Fold change /veh LINC00158 (11744669_a_at) / RFU DUSP10 (11751237_a_at) / Fold change /veh DUSP10 (11751237_a_at) / RFU ID3 (11757404_x_at) / Fold change /veh ID3 (11757404_x_at) / RFU PLEKHG5 (11737974_s_at) / Fold change /veh PLEKHG5 (11737974_s_at) / RFU LRRC4B (11730491_at) / Fold change /veh LRRC4B (11730491_at) / RFU GIMAP4 (11747438_a_at) / Fold change /veh GIMAP4 (11747438_a_at) / RFU KRT8 (11758183_x_at) / Fold change /veh KRT8 (11758183_x_at) / RFU CNN1 (11734310_a_at) / Fold change /veh CNN1 (11734310_a_at) / RFU VPS37D (11726825_at) / Fold change /veh VPS37D (11726825_at) / RFU C10orf10 (11716522_x_at) / Fold change /veh C10orf10 (11716522_x_at) / RFU KIR2DL2 /// KIR2DL4 /// KIR2DL5A /// KIR2DL5B /// KIR2DS1 /// KIR2DS2 /// KIR2DS3 /// KIR2DS4 /// KIR3DL3 /// KIR3DL3 /// KIR3DS1 (11738374_at) / Fold change /veh KIR2DL2 /// KIR2DL4 /// KIR2DL5A /// KIR2DL5B /// KIR2DS1 /// KIR2DS2 /// KIR2DS3 /// KIR2DS4 /// KIR3DL3 /// KIR3DL3 /// KIR3DS1 (11738374_at) / RFU C1QL1 (11718748_at) / Fold change /veh C1QL1 (11718748_at) / RFU TMPRSS4 (11747572_a_at) / Fold change /veh TMPRSS4 (11747572_a_at) / RFU HAMP (11756126_x_at) / Fold change /veh HAMP (11756126_x_at) / RFU RNFT2 (11725882_a_at) / Fold change /veh RNFT2 (11725882_a_at) / RFU NR4A2 (11747474_a_at) / Fold change /veh NR4A2 (11747474_a_at) / RFU ABCC12 (11746883_a_at) / Fold change /veh ABCC12 (11746883_a_at) / RFU TMEM136 (11760407_x_at) / Fold change /veh TMEM136 (11760407_x_at) / RFU CLDN22 /// WWC2 (11732394_at) / Fold change /veh CLDN22 /// WWC2 (11732394_at) / RFU HLA-DPB1 (11760878_x_at) / Fold change /veh HLA-DPB1 (11760878_x_at) / RFU SPINT1 (11716480_a_at) / Fold change /veh SPINT1 (11716480_a_at) / RFU GAP43 (11754022_s_at) / Fold change /veh GAP43 (11754022_s_at) / RFU A4GNT (11735810_at) / Fold change /veh A4GNT (11735810_at) / RFU PRB3 (11715151_x_at) / Fold change /veh PRB3 (11715151_x_at) / RFU TUBB4B (11761932_at) / Fold change /veh TUBB4B (11761932_at) / RFU CAPN14 (11732068_a_at) / Fold change /veh CAPN14 (11732068_a_at) / RFU TMCC2 (11721928_a_at) / Fold change /veh TMCC2 (11721928_a_at) / RFU IRGQ (11745062_a_at) / Fold change /veh IRGQ (11745062_a_at) / RFU FAM174B (11720279_a_at) / Fold change /veh FAM174B (11720279_a_at) / RFU TMPRSS4 (11748680_a_at) / Fold change /veh TMPRSS4 (11748680_a_at) / RFU FAM212B (11763350_a_at) / Fold change /veh FAM212B (11763350_a_at) / RFU PLEKHG5 (11743358_a_at) / Fold change /veh PLEKHG5 (11743358_a_at) / RFU ZSCAN30 (11745921_a_at) / Fold change /veh ZSCAN30 (11745921_a_at) / RFU CMKLR1 (11741424_a_at) / Fold change /veh CMKLR1 (11741424_a_at) / RFU LOC101060620 /// MAPK8IP1 (11723275_at) / Fold change /veh LOC101060620 /// MAPK8IP1 (11723275_at) / RFU SPTSSB (11747773_x_at) / Fold change /veh SPTSSB (11747773_x_at) / RFU PRSS12 (11739890_at) / Fold change /veh PRSS12 (11739890_at) / RFU BIN1 (11741810_x_at) / Fold change /veh BIN1 (11741810_x_at) / RFU WNT11 (11732464_a_at) / Fold change /veh WNT11 (11732464_a_at) / RFU C10orf10 (11716521_a_at) / Fold change /veh C10orf10 (11716521_a_at) / RFU C5orf56 (11738089_at) / Fold change /veh C5orf56 (11738089_at) / RFU CYB561 (11721691_x_at) / Fold change /veh CYB561 (11721691_x_at) / RFU ANKRD19P (11752326_a_at) / Fold change /veh ANKRD19P (11752326_a_at) / RFU OR2T12 /// OR2T33 /// OR2T8 (11738714_s_at) / Fold change /veh OR2T12 /// OR2T33 /// OR2T8 (11738714_s_at) / RFU VCAN (11748164_a_at) / Fold change /veh VCAN (11748164_a_at) / RFU JSRP1 (11732532_at) / Fold change /veh JSRP1 (11732532_at) / RFU KRTAP10-11 (11738290_x_at) / Fold change /veh KRTAP10-11 (11738290_x_at) / RFU MYO3A (11730013_a_at) / Fold change /veh MYO3A (11730013_a_at) / RFU EBF3 (11725865_a_at) / Fold change /veh EBF3 (11725865_a_at) / RFU CAMK2N1 (11719241_x_at) / Fold change /veh CAMK2N1 (11719241_x_at) / RFU C5orf56 (11738088_a_at) / Fold change /veh C5orf56 (11738088_a_at) / RFU OLFML3 (11715873_a_at) / Fold change /veh OLFML3 (11715873_a_at) / RFU LOC100653217 /// NTM (11731650_a_at) / Fold change /veh LOC100653217 /// NTM (11731650_a_at) / RFU MAPK11 (11762145_a_at) / Fold change /veh MAPK11 (11762145_a_at) / RFU FIZ1 (11724087_x_at) / Fold change /veh FIZ1 (11724087_x_at) / RFU OASL (11726364_x_at) / Fold change /veh OASL (11726364_x_at) / RFU SOX15 (11748057_x_at) / Fold change /veh SOX15 (11748057_x_at) / RFU CD79A (11719716_a_at) / Fold change /veh CD79A (11719716_a_at) / RFU HIST1H1D (11736915_at) / Fold change /veh HIST1H1D (11736915_at) / RFU CASKIN2 (11723855_a_at) / Fold change /veh CASKIN2 (11723855_a_at) / RFU LOC730098 (11760151_x_at) / Fold change /veh LOC730098 (11760151_x_at) / RFU OR4N2 (11742367_at) / Fold change /veh OR4N2 (11742367_at) / RFU PRRT2 (11749266_a_at) / Fold change /veh PRRT2 (11749266_a_at) / RFU SNX32 (11753110_a_at) / Fold change /veh SNX32 (11753110_a_at) / RFU CDHR5 (11726645_a_at) / Fold change /veh CDHR5 (11726645_a_at) / RFU RCAN1 (11760418_a_at) / Fold change /veh RCAN1 (11760418_a_at) / RFU FAM167A (11723789_a_at) / Fold change /veh FAM167A (11723789_a_at) / RFU FAM26E (11764081_at) / Fold change /veh FAM26E (11764081_at) / RFU ISYNA1 (11749810_s_at) / Fold change /veh ISYNA1 (11749810_s_at) / RFU ACY1 (11761880_at) / Fold change /veh ACY1 (11761880_at) / RFU 11764098_at / Fold change /veh 11764098_at / RFU SAMD14 (11745864_x_at) / Fold change /veh SAMD14 (11745864_x_at) / RFU NPB (11741838_a_at) / Fold change /veh NPB (11741838_a_at) / RFU TMPRSS6 (11731388_a_at) / Fold change /veh TMPRSS6 (11731388_a_at) / RFU KRTAP10-2 (11738614_at) / Fold change /veh KRTAP10-2 (11738614_at) / RFU ARHGAP8 /// PRR5-ARHGAP8 (11727945_x_at) / Fold change /veh ARHGAP8 /// PRR5-ARHGAP8 (11727945_x_at) / RFU KRTAP5-7 /// NADSYN1 (11734609_at) / Fold change /veh KRTAP5-7 /// NADSYN1 (11734609_at) / RFU RASL12 (11751679_a_at) / Fold change /veh RASL12 (11751679_a_at) / RFU CDKN2B (11736163_a_at) / Fold change /veh CDKN2B (11736163_a_at) / RFU PRF1 (11729649_at) / Fold change /veh PRF1 (11729649_at) / RFU, ZNF638 /// ZNF638-IT1 / Fold change vs veh, ZNF638 /// ZNF638-IT1 / RFU, PANK3 / Fold change vs veh, PANK3 / RFU, SH3YL1 / Fold change vs veh, SH3YL1 / RFU, ZEB2 / Fold change vs veh, ZEB2 / RFU, NRIP1 / Fold change vs veh, NRIP1 / RFU, PTTG1IP / Fold change vs veh, PTTG1IP / RFU, CAPN2 / Fold change vs veh, CAPN2 / RFU, MED14 / Fold change vs veh, MED14 / RFU, SNORA58 / Fold change vs veh, SNORA58 / RFU, C1orf63 / Fold change vs veh, C1orf63 / RFU, LRRFIP1 / Fold change vs veh, LRRFIP1 / RFU, NDUFAF7 / Fold change vs veh, NDUFAF7 / RFU, SLC12A2 / Fold change vs veh, SLC12A2 / RFU, IBTK / Fold change vs veh, IBTK / RFU, ESF1 / Fold change vs veh, ESF1 / Fold change vs veh, TMEM50B / RFU, TAOK1 / Fold change vs veh, TAOK1 / RFU, ACBD3 / Fold change vs veh, ACBD3 / RFU, TMA16 / Fold change vs veh, TMA16 / RFU, RWDD3 / Fold change vs veh, RWDD3 / RFU, BCAT1 / Fold change vs veh, BCAT1 / RFU, EDEM3 / Fold change vs veh, EDEM3 / RFU, TMEM33 / Fold change vs veh, TMEM33 / RFU, WDR75 / Fold change vs veh, WDR75 / RFU, AHCTF1 / Fold change vs veh, AHCTF1 / RFU, TFRC / Fold change vs veh, TFRC / RFU, ZDHHC17 / Fold change vs veh, ZDHHC17 / RFU, NOM1 / Fold change vs veh, NOM1 / RFU, ARL8B / Fold change vs veh, ARL8B / RFU, ZBTB11 / Fold change vs veh, ZBTB11 / RFU, TAMM41 / Fold change vs veh, TAMM41 / RFU, KIAA1704 /// LOC100996395 / Fold change vs veh, KIAA1704 /// LOC100996395 / RFU, ING1 / Fold change vs veh, ING1 / RFU, TRMT61B / Fold change vs veh, TRMT61B / RFU, FUBP3 / Fold change vs veh, FUBP3 / RFU, TP53 / Fold change vs veh, TP53 / RFU, TNKS2 / Fold change vs veh, TNKS2 / RFU, ZFP14 / Fold change vs veh, ZFP14 / RFU, ACTR2 / Fold change vs veh, ACTR2 / RFU, PPP3R1 / Fold change vs veh, PPP3R1 / RFU, PIK3R1 / Fold change vs veh, PIK3R1 / RFU, HNRNPA1 / Fold change vs veh, HNRNPA1 / RFU, RNF170 / Fold change vs veh, RNF170 / RFU, ZNF28 / Fold change vs veh, ZNF28 / RFU, RNGTT / Fold change vs veh, RNGTT / RFU, OGT / Fold change vs veh, OGT / RFU, BRD1 / Fold change vs veh, BRD1 / RFU, MARS / Fold change vs veh, MARS / RFU, ZNF655 / Fold change vs veh, ZNF655 / RFU, FAHD1 / Fold change vs veh, FAHD1 / RFU, BDP1 / Fold change vs veh, BDP1 / RFU, LRRCC1 / Fold change vs veh, LRRCC1 / RFU, ARID1A / Fold change vs veh, ARID1A / RFU, ZNF146 / Fold change vs veh, ZNF146 / RFU, ZNF330 / Fold change vs veh, ZNF330 / RFU, GPN3 / Fold change vs veh, GPN3 / RFU, C9orf123 / Fold change vs veh, C9orf123 / RFU, N4BP2L2 / Fold change vs veh, N4BP2L2 / RFU, ARFIP1 / Fold change vs veh, ARFIP1 / RFU, FAM179B / Fold change vs veh, FAM179B / RFU, BCL10 / Fold change vs veh, BCL10 / RFU, UHRF1BP1L / Fold change vs veh, UHRF1BP1L / RFU, BET1 / Fold change vs veh, BET1 / RFU, CNOT2 / Fold change vs veh, CNOT2 / RFU, ZNF268 / Fold change vs veh, ZNF268 / Fold change vs veh, ZNF507 / RFU, DGCR2 / Fold change vs veh, DGCR2 / RFU, WDSUB1 / Fold change vs veh, WDSUB1 / Fold change vs veh, HSP90B1 /// MIR3652 / RFU, ADSS / Fold change vs veh, ADSS / RFU, GK / Fold change vs veh, GK / RFU, ZNF148 / Fold change vs veh, ZNF148 / RFU, TAF9 / Fold change vs veh, TAF9 / RFU, SLC1A5 / Fold change vs veh, SLC1A5 / RFU, SLMO2 / Fold change vs veh, SLMO2 / RFU, ABCC4 / Fold change vs veh, ABCC4 / RFU, LOC101060439 /// RAP1B / Fold change vs veh, LOC101060439 /// RAP1B / RFU, RFX7 / Fold change vs veh, RFX7 / RFU, GTPBP10 / Fold change vs veh, GTPBP10 / RFU, CNEP1R1 / Fold change vs veh, CNEP1R1 / RFU, BIVM-ERCC5 /// ERCC5 / Fold change vs veh, BIVM-ERCC5 /// ERCC5 / RFU, ILF3 / Fold change vs veh, ILF3 / RFU 11762660_at / Fold change /veh 11762660_at / RFU VCAN (11757783_s_at) / Fold change /veh VCAN (11757783_s_at) / RFU DDX43 (11728927_at) / Fold change /veh DDX43 (11728927_at) / RFU KRT8 (11758188_x_at) / Fold change /veh KRT8 (11758188_x_at) / RFU NKD1 (11759106_at) / Fold change /veh NKD1 (11759106_at) / RFU SRD5A1 (11742802_a_at) / Fold change /veh SRD5A1 (11742802_a_at) / RFU TPSAB1 /// TPSB2 (11721975_s_at) / Fold change /veh TPSAB1 /// TPSB2 (11721975_s_at) / RFU GSTM3 (11746129_a_at) / Fold change /veh GSTM3 (11746129_a_at) / RFU IL23R (11737362_x_at) / Fold change /veh IL23R (11737362_x_at) / RFU TMEM51 (11727254_a_at) / Fold change /veh TMEM51 (11727254_a_at) / RFU PIWIL2 (11732686_x_at) / Fold change /veh PIWIL2 (11732686_x_at) / RFU ORM1 (11744905_x_at) / Fold change /veh ORM1 (11744905_x_at) / RFU CCDC152 (11743942_at) / Fold change /veh CCDC152 (11743942_at) / RFU ECM1 (11717891_a_at) / Fold change /veh ECM1 (11717891_a_at) / RFU IL23R (11748794_a_at) / Fold change /veh IL23R (11748794_a_at) / RFU TNFAIP8L3 (11732012_x_at) / Fold change /veh TNFAIP8L3 (11732012_x_at) / RFU MBOAT4 (11741988_at) / Fold change /veh MBOAT4 (11741988_at) / RFU 11764193_at / Fold change /veh 11764193_at / RFU TMEM53 (11763286_at) / Fold change /veh TMEM53 (11763286_at) / RFU MAGEB2 (11727129_at) / Fold change /veh MAGEB2 (11727129_at) / RFU TMEM200A (11744735_a_at) / Fold change /veh TMEM200A (11744735_a_at) / RFU CCDC152 (11751479_a_at) / Fold change /veh CCDC152 (11751479_a_at) / RFU FAM211A (11726209_a_at) / Fold change /veh FAM211A (11726209_a_at) / RFU RGS16 (11746705_a_at) / Fold change /veh RGS16 (11746705_a_at) / RFU VCAN (11755009_s_at) / Fold change /veh VCAN (11755009_s_at) / RFU RHOB (11743442_s_at) / Fold change /veh RHOB (11743442_s_at) / RFU RGS16 (11720943_a_at) / Fold change /veh RGS16 (11720943_a_at) / RFU RGS16 (11720944_at) / Fold change /veh RGS16 (11720944_at) / RFU, VPS4B / Fold change vs veh, VPS4B / RFU, CREB1 / Fold change vs veh, CREB1 / RFU, DNAJC13 / Fold change vs veh, DNAJC13 / RFU, GNAQ / Fold change vs veh, GNAQ / RFU, CDK5R1 / Fold change vs veh, CDK5R1 / RFU, ZRANB3 / Fold change vs veh, ZRANB3 / RFU, CUL4A / Fold change vs veh, CUL4A / RFU, CCNY / Fold change vs veh, CCNY / RFU, UFL1 / Fold change vs veh, UFL1 / RFU, COG3 / Fold change vs veh, COG3 / RFU, DIAPH2 / Fold change vs veh, DIAPH2 / RFU, SKA2 / Fold change vs veh, SKA2 / RFU, AFF3 / Fold change vs veh, AFF3 / RFU, LMF1 / Fold change vs veh, LMF1 / RFU, IPO11 / Fold change vs veh, IPO11 / RFU, DFFB / Fold change vs veh, DFFB / RFU, FOXP1 / Fold change vs veh, FOXP1 / RFU, CARD8 / Fold change vs veh, CARD8 / RFU, STRN3 / Fold change vs veh, STRN3 / RFU, ADK / Fold change vs veh, ADK / RFU, RASSF2 / Fold change vs veh, RASSF2 / RFU, WIPF1 / Fold change vs veh, WIPF1 / RFU, LARP1B / Fold change vs veh, LARP1B / RFU, RASA1 / Fold change vs veh, RASA1 / RFU, RB1 / Fold change vs veh, RB1 / RFU, PPFIA1 / Fold change vs veh, PPFIA1 / RFU, MAT2A / Fold change vs veh, MAT2A / RFU, CCT5 / Fold change vs veh, CCT5 / RFU, WDR92 / Fold change vs veh, WDR92 / RFU, CUX1 / Fold change vs veh, CUX1 / RFU, TTC7A / Fold change vs veh, TTC7A / RFU, TMEM135 / Fold change vs veh, TMEM135 / RFU, DEPTOR / Fold change vs veh, DEPTOR / RFU, CPM / Fold change vs veh, CPM / RFU, DNAJB6 / Fold change vs veh, DNAJB6 / RFU, CACNA2D3 / Fold change vs veh, CACNA2D3 / RFU, DTX4 / Fold change vs veh, DTX4 / RFU, TFCP2 / Fold change vs veh, TFCP2 / RFU, GMCL1 /// GMCL1P1 / Fold change vs veh, GMCL1 /// GMCL1P1 / RFU, AEBP2 / Fold change vs veh, AEBP2 / RFU, SNHG1 /// SNORD22 /// SNORD25 /// SNORD26 /// SNORD27 /// SNORD28 /// SNORD29 /// SNORD31 / Fold change vs veh, SNHG1 /// SNORD22 /// SNORD25 /// SNORD26 /// SNORD27 /// SNORD28 /// SNORD29 /// SNORD31 / Fold change (Aza/veh), C12orf56 (ProbeSet 11735607_a_at) / Fold change (ACY-1035/veh), C12orf56 (ProbeSet 11735607_a_at) / Fold change (Aza/veh), FGFR1OP (ProbeSet 11751329_s_at) / Fold change (ACY-1035/veh), FGFR1OP (ProbeSet 11751329_s_at) / Fold change (Aza/veh), VPS36 (ProbeSet 11739960_a_at) / Fold change (ACY-1035/veh), VPS36 (ProbeSet 11739960_a_at) / RFU SYPL1 (11715823_x_at) / Fold change /veh SYPL1 (11715823_x_at) / RFU IGFBP7 (11715501_s_at) / Fold change /veh IGFBP7 (11715501_s_at) / RFU REEP3 (11722064_at) / Fold change /veh REEP3 (11722064_at) / RFU IGLL1 (11728026_x_at) / Fold change /veh IGLL1 (11728026_x_at): dose or concentration left out as unconfirmed
Details: ProbeSet 11717876_a_at; LIST D

Structure (SMILES): Nc1ccc(-c2cccs2)cc1NC(=O)c1ccc2c(c1)cc(C1CC1)n2CCN1CCOCC1 [ACY-1035]
- RFU, PPFIA1: 30.94 RFU
